Experiments:
Test in all cases: Test C preemergence
Format in all cases: in vivo
[1] = system: velvetleaf (Abutilon theophrasti); conditions: for Plant response rating, Velvetleaf: scale 0 to 100, 0 no effect, 100 complete control
Summary of the method: (§1)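 Preemergence: sow in loam-sand soil and treat. Postemergence: grow in peat-moss/vermiculite medium to 2–18 cm (1–4 leaves) and spray. Compound in non-phytotoxic solvent with surfactant; keep in greenhouse 13–15 d; score visually against controls, 0 (none) to 100 (full control).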

[2] = system: ryegrass, Italian (Italian ryegrass, Lolium multiflorum); conditions: for Plant response rating, Ryegrass, Italian: scale 0 to 100, 0 no effect, 100 complete control
Summary of the method: as §1

[3] = system: wheat (winter wheat, Triticum aestivum); conditions: for Plant response rating, Wheat: scale 0 to 100, 0 no effect, 100 complete control
Summary of the method: as §1

[4] = system: foxtail, giant (giant foxtail, Setaria faberii); conditions: for Plant response rating, Foxtail, Giant: scale 0 to 100, 0 no effect, 100 complete control
Summary of the method: as §1

[5] = system: johnsongrass (Sorghum halepense); conditions: for Plant response rating, Johnsongrass: scale 0 to 100, 0 no effect, 100 complete control
Summary of the method: as §1

[6] = system: lambsquarters (Chenopodium album); conditions: for Plant response rating, Lambsquarters: scale 0 to 100, 0 no effect, 100 complete control
Summary of the method: as §1

[7] = system: pigweed (Amaranthus retroflexus); conditions: for Plant response rating, Pigweed: scale 0 to 100, 0 no effect, 100 complete control
Summary of the method: as §1

[8] = system: waterhemp (common waterhemp, Amaranthus rudis); conditions: for Plant response rating, Waterhemp: scale 0 to 100, 0 no effect, 100 complete control
Summary of the method: as §1

[9] = system: blackgrass (Alopecurus myosuroides); conditions: for Plant response rating, Blackgrass: scale 0 to 100, 0 no effect, 100 complete control
Summary of the method: as §1

[10] = system: oilseed rape (Brassica napus); conditions: for Plant response rating, Oilseed Rape: scale 0 to 100, 0 no effect, 100 complete control
Summary of the method: as §1

[11] = system: Galium (catchweed bedstraw, Galium aparine); conditions: for Plant response rating, Galium: scale 0 to 100, 0 no effect, 100 complete control
Summary of the method: as §1

[12] = system: crabgrass, large (large crabgrass, Digitaria sanguinalis); conditions: for Plant response rating, Crabgrass, Large: scale 0 to 100, 0 no effect, 100 complete control
Summary of the method: as §1

[13] = system: ragweed (common ragweed, Ambrosia elatior); conditions: for Plant response rating, Ragweed: scale 0 to 100, 0 no effect, 100 complete control
Summary of the method: as §1

[14] = system: soybean (Glycine max); conditions: for Plant response rating, Soybean: scale 0 to 100, 0 no effect, 100 complete control
Summary of the method: as §1

[15] = system: morningglory (Ipomoea coccinea); conditions: for Plant response rating, Morningglory: scale 0 to 100, 0 no effect, 100 complete control
Summary of the method: as §1

[16] = system: corn (Zea mays); conditions: for Plant response rating, Corn: scale 0 to 100, 0 no effect, 100 complete control
Summary of the method: as §1

[17] = system: barnyardgrass (Echinochloa crus-galli); conditions: for Plant response rating, Barnyardgrass: scale 0 to 100, 0 no effect, 100 complete control
Summary of the method: as §1

[18] = 31 g ai/ha, 0 is no effect, 100 is complete control

CN1CC(c2cc(F)cc(F)c2)C(C(=O)Nc2ccc(F)c(F)c2F)C1=O (centres unmarked) [Compound 646]
Plant response rating (scale of 0 to 100), Velvetleaf [1, 18]: 15
Plant response rating, Velvetleaf ([1]; 62 g ai/ha): 25
Plant response rating, Velvetleaf ([1]; 125 g ai/ha): 55
Plant response rating, Velvetleaf ([1]; 250 g ai/ha): 60
Plant response rating (scale of 0 to 100), Ryegrass, Italian [2, 18]: 30
Plant response rating, Ryegrass, Italian ([2]; 62 g ai/ha): 20
Plant response rating, Ryegrass, Italian ([2]; 125 g ai/ha): 80
Plant response rating, Ryegrass, Italian ([2]; 250 g ai/ha): 90
Plant response rating (scale of 0 to 100), Wheat [3, 18]: 35
Plant response rating, Wheat ([3]; 62 g ai/ha): 80
Plant response rating, Wheat ([3]; 125 g ai/ha): 85
Plant response rating, Wheat ([3]; 250 g ai/ha): 90
Plant response rating (scale of 0 to 100), Foxtail, Giant [4, 18]: 95
Plant response rating, Foxtail, Giant ([4]; 62 g ai/ha): 95
Plant response rating, Foxtail, Giant ([4]; 125 g ai/ha): 95
Plant response rating, Foxtail, Giant ([4]; 250 g ai/ha): 98
Plant response rating (scale of 0 to 100), Johnsongrass [5, 18]: 35
Plant response rating, Johnsongrass ([5]; 62 g ai/ha): 40
Plant response rating, Johnsongrass ([5]; 125 g ai/ha): 85
Plant response rating, Johnsongrass ([5]; 250 g ai/ha): 90
Plant response rating (scale of 0 to 100), Lambsquarters [6, 18]: 40
Plant response rating, Lambsquarters ([6]; 62 g ai/ha): 60
Plant response rating, Lambsquarters ([6]; 125 g ai/ha): 75
Plant response rating, Lambsquarters ([6]; 250 g ai/ha): 80
Plant response rating (scale of 0 to 100), Pigweed [7, 18]: 0
Plant response rating, Pigweed ([7]; 62 g ai/ha): 10
Plant response rating, Pigweed ([7]; 125 g ai/ha): 65
Plant response rating, Pigweed ([7]; 250 g ai/ha): 75
Plant response rating (scale of 0 to 100), Waterhemp [8, 18]: 65
Plant response rating, Waterhemp ([8]; 62 g ai/ha): 60
Plant response rating, Waterhemp ([8]; 125 g ai/ha): 75
Plant response rating, Waterhemp ([8]; 250 g ai/ha): 85
Plant response rating (scale of 0 to 100), Blackgrass [9, 18]: 80
Plant response rating, Blackgrass ([9]; 62 g ai/ha): 80
Plant response rating, Blackgrass ([9]; 125 g ai/ha): 85
Plant response rating, Blackgrass ([9]; 250 g ai/ha): 98
Plant response rating (scale of 0 to 100), Oilseed Rape [10, 18]: 15
Plant response rating, Oilseed Rape ([10]; 62 g ai/ha): 80
Plant response rating, Oilseed Rape ([10]; 125 g ai/ha): 85
Plant response rating, Oilseed Rape ([10]; 250 g ai/ha): 90
Plant response rating (scale of 0 to 100), Galium [11, 18]: 90
Plant response rating, Galium ([11]; 62 g ai/ha): 90
Plant response rating, Galium ([11]; 125 g ai/ha): 90
Plant response rating, Galium ([11]; 250 g ai/ha): 100
Plant response rating (scale of 0 to 100), Crabgrass, Large [12, 18]: 95
Plant response rating, Crabgrass, Large ([12]; 62 g ai/ha): 95
Plant response rating, Crabgrass, Large ([12]; 125 g ai/ha): 98
Plant response rating, Crabgrass, Large ([12]; 250 g ai/ha): 100
Plant response rating (scale of 0 to 100), Ragweed [13, 18]: 20
Plant response rating, Ragweed ([13]; 62 g ai/ha): 30
Plant response rating, Ragweed ([13]; 125 g ai/ha): 60
Plant response rating, Ragweed ([13]; 250 g ai/ha): 70
Plant response rating (scale of 0 to 100), Soybean [14, 18]: 0
Plant response rating, Soybean ([14]; 62 g ai/ha): 0
Plant response rating, Soybean ([14]; 125 g ai/ha): 10
Plant response rating, Soybean ([14]; 250 g ai/ha): 0
Plant response rating (scale of 0 to 100), Morningglory [15, 18]: 0
Plant response rating, Morningglory ([15]; 62 g ai/ha): 0
Plant response rating, Morningglory ([15]; 125 g ai/ha): 0
Plant response rating, Morningglory ([15]; 250 g ai/ha): 10
Plant response rating (scale of 0 to 100), Corn [16, 18]: 35
Plant response rating, Corn ([16]; 62 g ai/ha): 45
Plant response rating, Corn ([16]; 125 g ai/ha): 65
Plant response rating, Corn ([16]; 250 g ai/ha): 75
Plant response rating (scale of 0 to 100), Barnyardgrass [17, 18]: 90
Plant response rating, Barnyardgrass ([17]; 62 g ai/ha): 95
Plant response rating, Barnyardgrass ([17]; 125 g ai/ha): 98
Plant response rating, Barnyardgrass ([17]; 250 g ai/ha): 98

Reference: patent publication US12077503B2, “Substituted cyclic amides and their use as herbicides” (FMC CORPORATION, priority 2015, dated 2024)
